From patent US20190359653A1, “SELECTIVE PEPTIDE INHIBITORS OF FRIZZLED” (Genentech, Inc., priority 2016, published 2019)

Experiments:
[1] = tested on: Lgr5-GFP organoids pre-treated with CHIR99021; APC^min organoids; assay: RT-PCR in organoids with active downstream Wnt signaling (CHIR99021 or APC^min); type: cell-based, mouse; settings: peptide 100 μM, 24 h; CHIR99021 5 μM pre-treatment or Apc mutant background
Method: Mouse organoids were established from isolated crypts collected from the entire length of the small intestine and maintained as previously described (Sato et al. (2009) Nature 459, 262-265 (2009). All mouse derived tissue was performed according to the animal use guidelines of Genentech, a Member of the Roche Group, and the Institutional Animal Care and Use Committee, conforming to California State legal and ethical practices. Mouse sex was not selected for. Organoids were passaged at least twice per week and grown using IntestiCult Organoid growth media (cat. no. 06005; StemCell Technologies). Peptides were suspended in DMSO and dissolved in media to 1% DMSO final concentration, then added to organoids to initiate drug treatment. Antibodies were added to 10 μg/ml concentration. […]
Briefly, Lgr5-GFP organoids were pre-treated with DMSO or the Gsk3β inhibitor CHIR99021 (5 μM) for 24 h, then treated with DMSO, dFz7-21 (100 μM), or Fz7-21S (100 μM)±CHIR99021. Transcripts were quantified by RT-PCR for Axin2 (FIG. 42A), and Asc12 (FIG. 42B). In a second set of experiments, APC^min organoids were cultured and treated with DMSO, dFz7-21 (100 μM), Fz7-21S (100 μM) for 24 h, and transcripts were quantified by RT-PCR for Axin2 (FIG. 42C), Asc12 (FIG. 42D), and Lgr5 ([…]).

[2] = tested on: receptor-independent β-catenin signaling in 6-BIO-treated HEK293-TB cells; assay: epistasis study, HEK293-TB cells stimulated with 6-BIO; type: cell-based; settings: 10 μM 6-BIO, 6 hr; FIG. 2E
[3] = target: T1, Wnt5a binding to FZD7 CRD (Homo sapiens, UniProt O75084); assay: ELISA of Wnt5a binding to FZD7 CRD, Fz7-21-derived peptide dimers; settings: FIGS. 23A-23J
T1 construct: hFZD7 CRD-Fc (cat no. 6178-FZ); purchased R&D systems 6178-FZ
Method: 384-well Maxisorp plates (cat. no. 464718; Thermo Scientific) were incubated with 30 μL of Neutravidin (cat. no. 31000, Thermo Scientific; 2 μg/mL in PBS) overnight at 4° C. Plates were then washed with PBST and blocked with PBS/1% BSA for 1 hour at RT and then washed with PBST prior to further processing. The binding assay was conducted in 96 well plates (cat no. 83007-374; VWR) which were blocked with PBS/1% BSA overnight at 4° C. hFZD4 CRD-Fc or hFZD7 CRD-Fc (63 ng/mL) were incubated with either Bio-Wnt3a (25 ng/mL) or Bio-Wnt5a (50 ng/mL) in the presence of 4-fold serial dilutions of the indicated peptide in PBS overnight at 4° C. All assays included hFZD9 CRD-mIgG2A protein as a negative control. hFZD7 CRD-His was suspended in 150 mM NaCl, 50 mM Tris-HCl at pH 7.5 and when used in assays an equal volume of the same buffer control was used. The binding assay mixtures were transferred to the Neutravidin coated plates and incubated for ˜1 h at RT. […] The signal was developed with the addition of TMB reagent (following the manufacturer's recommendation; KPL; 50-76-00) for 15 min prior to the addition of an equal volume of 1 M phosphoric acid for 10 min Absorbance was measured at 450 nm using a Tekan M1000 plate reader. […]

Row | Sequence | stem cell (Lgr5, Ascl2) and Wnt signaling (Axin2) markers [1] | inhibition of Wnt signaling in 6-BIO-treated cells [2] | effect on recruitment of Wnt5a to FZD7 CRD [3]
1 | LPSDDLEFWCHVMY [dFz7-21] | Little or no effect |  | 
2 | LPSDDLEFWSHVMY [Fz7-21S, negative control] |  | Neither Fz7-21 nor Fz7-21S inhibited | no effect
